According to ChEMBL document CHEMBL1649345, “Strychnan and secoangustilobine A type alkaloids from Alstonia spatulata. Revision of the C-20 configuration of scholaricine” (J Nat Prod, 2010):
Converted amounts (≈) assume the structure as drawn.

Experiments:
Type in all cases: functional, cell-based
[1] = Cytotoxicity against human vincristine-resistant KB/VJ300 cells in presence of vincristine
[2] = Cytotoxicity against human vincristine-resistant KB/VJ300 cells
[3] = Cytotoxicity against human vincristine-sensitive KB/S cells

Row | SMILES | IC50 [1] | IC50 [2] | IC50 [3]
1 | COC(=O)C1=C2Nc3ccccc3[C@@]23CCN2C[C@H]([C@@H](C)O)[C@@H]1C[C@H]23 | 5.12 µg/mL | > 25 µg/mL | > 25 µg/mL
2 | COC(=O)C1=C2Nc3ccccc3[C@@]23CCN2C[C@H]([C@H](C)O)[C@@H]1C[C@H]23 | 8.35 µg/mL | > 25 µg/mL | > 25 µg/mL
3 | COC(=O)C1=C2Nc3c(OC)cccc3[C@@]23CCN2C[C@H]([C@@H](C)O)[C@@H]1C[C@H]23 | 10.6 µg/mL | > 25 µg/mL | > 25 µg/mL
4 | C=C[C@@]12CNCC[C@@H]1[C@](C(=O)OC)(c1cc3ccccc3[nH]1)CO2 | > 25 µg/mL | > 25 µg/mL | > 25 µg/mL
5 | C/C=C1/CN2CC[C@]34C(=C(C(=O)OC)[C@H]1C[C@H]23)Nc1ccccc14 [AKUAMMICINE] | 12.3 µg/mL | > 25 µg/mL | > 25 µg/mL
6 | C=C[C@@]12CN(C(=O)OCC)CC[C@@H]1[C@](C(=O)OC)(c1cc3ccccc3[nH]1)CO2 [ALSTOLOBINE A] | 3.51 µg/mL | > 25 µg/mL | > 25 µg/mL
7 | CCOC(=O)O[C@H](C)[C@H]1CN2CC[C@]34C(=C(C(=O)OC)[C@H]1C[C@H]23)Nc1ccccc14 [ALSTOLUCINE A] | 0.59 µg/mL | > 25 µg/mL | > 25 µg/mL
8 | COC(=O)C1=C2Nc3ccccc3[C@@]23CCN2C[C@@H](C(C)=O)[C@@H]1C[C@H]23 [ALSTOLUCINE B] | 0.64 µg/mL | > 25 µg/mL | > 25 µg/mL
9 | COC(=O)C1=C2Nc3ccccc3[C@@]23CC[N+]2([O-])C[C@@H](C(C)=O)[C@@H]1C[C@@H]32 (some centres not stated) [ALSTOLUCINE C] | > 25 µg/mL | > 25 µg/mL | > 25 µg/mL
10 | COC(=O)C1=C2Nc3c(O)cccc3[C@@]23CCN2C[C@@H](C(C)=O)[C@@H]1C[C@H]23 [ALSTOLUCINE D] | 10.3 µg/mL | > 25 µg/mL | > 25 µg/mL
11 | COC(=O)C1=C2Nc3c(O)cccc3[C@@]23CCN2C[C@H](C(C)=O)[C@@H]1C[C@H]23 [ALSTOLUCINE E] | 19.2 µg/mL | > 25 µg/mL | > 25 µg/mL
12 | COC(=O)C1=C2Nc3ccccc3[C@@]23CCN2C[C@H](C(C)=O)[C@@H]1C[C@H]23 [ALSTOLUCINE F] | 2.61 µg/mL | > 25 µg/mL | > 25 µg/mL
13 | COC(=O)C1=C2Nc3c(O)cccc3[C@@]23CCN2C[C@@H]([C@H](C)O)[C@@H]1C[C@H]23 [SCHOLARICINE] | 1.15 µg/mL | 13.3 µg/mL (≈ 37.5 µM) | > 25 µg/mL
14 | C/C=C1/CN2CC[C@]34C(=C(C(=O)O)[C@H]1C[C@H]23)Nc1ccccc14 [VINERVINE] | 12.1 µg/mL | > 25 µg/mL | > 25 µg/mL
